Data set [1] deals with folate receptor. Nature of the data set: in vivo PET imaging in nude mice bearing KB xenografts tumors. How it is done:
In vivo PET imaging using the 2′-[^18F]fluoro-folic acid was performed in nude mice bearing KB xenografts tumors. Ca. 10 MBq of the radiotracer were injected into each animal. In the blockade group 200 μg natural folic acid was injected 10 min prior to the radiotracer. The PET scans were acquired from 30 min to 90 min post injection.

Data set [2] has as its target T1, folate receptor (Homo sapiens, UniProt P15328).
T1 construct: endogenous in cells; host or cells: KB tumour xenografts in nude mice
As to the kind of experiment: ex vivo biodistribution studies in nude mice bearing KB xenografts tumors. To be noted: nude mice, KB xenograft tumors; ~2 MBq radiotracer; blockade group 200 μg natural folic acid 10 min prior; 90 min post injection. How it is done: (§1) 2′-[^18F]fluoro-folic acid was applied in ex vivo biodistribution studies using eight nude mice bearing KB xenografts tumors. ˜2 MBq of the radiotracer were injected into each animal. In a blockade group 200 μg natural folic acid was injected 10 min prior to the radiotracer. The animals were scarified 90 min post injection.

Data set [3] relates to folate receptor. The description is as above. On the procedure: as §1

Structures are written as SMILES.

T1 sequence (P15328 25-234 limits assumed): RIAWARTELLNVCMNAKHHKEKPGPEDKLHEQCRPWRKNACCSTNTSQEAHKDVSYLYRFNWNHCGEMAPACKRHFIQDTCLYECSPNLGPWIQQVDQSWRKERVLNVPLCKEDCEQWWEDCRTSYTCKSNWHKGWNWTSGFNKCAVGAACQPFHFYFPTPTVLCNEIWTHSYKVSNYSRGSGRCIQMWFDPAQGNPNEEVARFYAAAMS

Consider `Nc1nc2ncc(CNc3ccc(C(=O)N[C@@H](CCC(=O)O)C(=O)O)c([18F])c3)nc2c(=O)[nH]1` [2′-[^18F]fluoro-folic acid], for which the “uptake of the radiotracer in the kidney cortex” value in the data set on folate receptor [1] (PET, kidney cortex, 30-90 min post injection) is “high specific uptake”. Further, the “uptake of the radiotracer in the kidney medulla” value with folate receptor [1] (PET, kidney medulla, 30-90 min post injection) is given as “no uptake”. Further, the “specificity of uptake (blockade by natural folic acid)” value in the data set on folate receptor [1] (ca. 10 MBq, blockade group 200 μg natural folic acid 10 min prior, PET 30-90 min post injection) was “highly specific and blocked by natural folic acid”. For the same compound, on folate receptor [2], the “specific uptake of the radiotracer in folate receptor-positive KB tumors, ratio of specific blockade” value is listed as 86.6%. Moreover, the “uptake in folate receptor-positive tissues (FIG. 1)” value with folate receptor [3] (ex vivo biodistribution, nude mice bearing KB xenografts) was “high specific uptake”. In addition, the “specific uptake in the kidneys, specific blockade” value with folate receptor [3] (nude mice, kidneys, ~2 MBq radiotracer, blockade group 200 μg natural folic acid 10 min prior, 90 min post injection) turned out to be 95.5%.
